K1/2 and KD data for one compound are collected here from article PMC3905878 (2013).

Assay [1] relates to Bsu A27C mutant (RNA, riboswitch, 5-aminoallyl-uridine at 13) AGAGGUUCUAGCUACACCCUCUAUAACAAACUAAGG
Nature of the assay: smFRET, fraction of high-FRET state. As to conditions: 100 mM KCl, 1 mM MgCl2; 50 mM Tris-HCl pH 7.5, room temperature; apparent.

Assay [2] concerns T. tengcongensis preQ1-I riboswitch 33-mer (RNA, riboswitch) CUGGGUCGCAGUAACCCCAGUUAACAAAACAAG
Nature of the assay: ITC. The following applies: 100 mM NaCl, 6 mM MgCl2; 50 mM HEPES-NaOH pH 7.0, 25 °C; Table S3 prints 7.4 ± 2.3.

The test system of assay [3] is Tte preQ1 riboswitch (wild-type, smFRET construct) (RNA, riboswitch, 5-aminoallyl-uridine at 12) CUGGGUCGCAGUAACCCCAGUUAACAAAACAAGGG
Nature of the assay: smFRET, fraction of high-FRET state. The following applies: 100 mM KCl, 1 mM MgCl2; 50 mM Tris-HCl pH 7.5, room temperature; apparent; high-FRET saturates near 50%.

Assay [4] concerns Bsu preQ1 riboswitch (wild-type, smFRET construct) (RNA, riboswitch, 5-aminoallyl-uridine at 13) AGAGGUUCUAGCUACACCCUCUAUAAAAAACUAAGG
Nature of the assay: smFRET, fraction of high-FRET state. As to conditions: 100 mM KCl, 1 mM MgCl2; 50 mM Tris-HCl pH 7.5, room temperature; apparent; high-FRET saturates near 50%.

Take `NCc1c[nH]c2nc(N)[nH]c(=O)c12`: the K1/2 is 11 µM in assay [1], 69 ± 22 nM in assay [3] and 134 ± 45 nM in assay [4]. The KD in assay [2] came to 7.3 ± 2.3 nM.

Usually KD stands for a measure of binding affinity in units of concentration. A low value points to higher affinity.
